ChEMBL document CHEMBL3217474, “The structure based design of dual HDAC/BET inhibitors as novel epigenetic probes” (Medchemcomm, 2014)
In brackets after ≈: the same amount, converted by molar mass. Activity calls are given as the source filed them. The rule behind the calls is not given here.

Columns and labels:
[1] = target: T1, Bromodomain-containing protein 2 (Homo sapiens, UniProt P25440); assay: Binding affinity to BRD2 in human HL60 cell nuclear extracts assessed as inhibition of protein binding to N-I-BET functionalised sepharose beads at 10 uM after 1 hr by coomassie staining-based chemoproteomic profiling; conditions: HL-60
Target sequence in this assay (P25440 whole entry, looked up): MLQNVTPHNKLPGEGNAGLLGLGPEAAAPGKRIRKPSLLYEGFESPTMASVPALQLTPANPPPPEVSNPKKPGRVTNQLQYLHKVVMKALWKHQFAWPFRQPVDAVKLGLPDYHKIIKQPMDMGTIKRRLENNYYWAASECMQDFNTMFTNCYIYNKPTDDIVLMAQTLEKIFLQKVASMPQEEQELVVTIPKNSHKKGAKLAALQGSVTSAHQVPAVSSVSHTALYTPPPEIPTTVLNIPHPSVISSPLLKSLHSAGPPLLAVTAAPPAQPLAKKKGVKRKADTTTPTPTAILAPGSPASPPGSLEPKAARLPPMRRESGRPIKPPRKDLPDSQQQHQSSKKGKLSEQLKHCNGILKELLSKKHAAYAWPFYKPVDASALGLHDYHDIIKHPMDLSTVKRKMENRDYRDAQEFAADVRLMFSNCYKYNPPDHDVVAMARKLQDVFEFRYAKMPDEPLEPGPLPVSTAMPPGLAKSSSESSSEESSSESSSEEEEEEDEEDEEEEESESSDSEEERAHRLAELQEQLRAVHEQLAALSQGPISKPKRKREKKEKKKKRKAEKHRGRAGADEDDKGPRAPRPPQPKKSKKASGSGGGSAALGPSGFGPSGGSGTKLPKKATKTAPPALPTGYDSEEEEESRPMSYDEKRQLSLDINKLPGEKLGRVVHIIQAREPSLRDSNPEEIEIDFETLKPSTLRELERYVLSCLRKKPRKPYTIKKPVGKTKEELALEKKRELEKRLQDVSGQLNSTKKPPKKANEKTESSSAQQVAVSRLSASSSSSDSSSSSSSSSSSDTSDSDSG

[2] = target: T2, Bromodomain-containing protein 3 (Homo sapiens, UniProt Q15059); assay: Binding affinity to BRD3 in human HL60 cell nuclear extracts assessed as inhibition of protein binding to N-I-BET functionalised sepharose beads at 10 uM after 1 hr by coomassie staining-based staining-based chemoproteomic profiling; conditions: HL-60
Target sequence in this assay (Q15059 2-726 limits assumed): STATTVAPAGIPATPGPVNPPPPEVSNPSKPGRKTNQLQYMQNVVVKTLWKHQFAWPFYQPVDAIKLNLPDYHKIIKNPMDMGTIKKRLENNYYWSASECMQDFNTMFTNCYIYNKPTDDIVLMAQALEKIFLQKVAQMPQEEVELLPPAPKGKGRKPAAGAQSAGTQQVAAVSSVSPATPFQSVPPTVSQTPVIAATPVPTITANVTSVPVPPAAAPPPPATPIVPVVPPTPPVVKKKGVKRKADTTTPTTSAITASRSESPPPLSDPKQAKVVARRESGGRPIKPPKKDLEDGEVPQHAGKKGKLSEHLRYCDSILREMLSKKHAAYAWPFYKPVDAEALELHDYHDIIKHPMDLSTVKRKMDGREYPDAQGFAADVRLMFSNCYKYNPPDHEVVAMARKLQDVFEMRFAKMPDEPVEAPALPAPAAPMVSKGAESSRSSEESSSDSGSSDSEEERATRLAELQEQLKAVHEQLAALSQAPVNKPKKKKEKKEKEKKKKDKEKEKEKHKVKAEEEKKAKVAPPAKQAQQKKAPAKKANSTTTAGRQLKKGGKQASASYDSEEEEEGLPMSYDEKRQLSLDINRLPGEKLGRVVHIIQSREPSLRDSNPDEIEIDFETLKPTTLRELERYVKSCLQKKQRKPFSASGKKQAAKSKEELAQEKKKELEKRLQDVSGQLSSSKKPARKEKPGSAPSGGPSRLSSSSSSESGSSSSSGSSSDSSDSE

[3] = target: T3, Bromodomain-containing protein 4 (Homo sapiens, UniProt O60885); assay: Binding affinity to BRD4 in human HL60 cell nuclear extracts assessed as inhibition of protein binding to N-I-BET functionalised sepharose beads at 10 uM after 1 hr by coomassie staining-based staining-based chemoproteomic profiling; conditions: HL-60
[4] = Solubility of the compound by chemiluminescent nitrogen detection method; assay type: physicochemical
[5] = Permeability of the compound in artificial membrane; assay type: physicochemical, cell membranes; conditions: PAMPA; read-out: permeability
[6] = target: T3, Bromodomain-containing protein 4; assay: Inhibition of recombinant BRD4 bromodomain 1 (unknown origin) using histone H4 peptide as substrate incubated for 1 hr under dark condition by HTRF assay
PBMC [7] = assay: Antiinflammatory activity in human PBMC assessed as inhibition of LPS-stimulated IL-6 production incubated for 30 mins prior to LPS-challenge measured after overnight incubation; assay type: functional, cell-based
PBMC [8] = assay: Antiinflammatory activity in human PBMC assessed as inhibition of LPS-stimulated TNF-alpha production incubated for 30 mins prior to LPS-challenge measured after overnight incubation; assay type: functional, cell-based
cells = assay type: functional; conditions: Homo sapiens, 72 h
Description: Growth inhibition of human 11060 cells assessed as ATP level after 72 hrs by CellTiterGlo assay

HL-60 = assay: cells; assay type: functional, cell-based; conditions: Homo sapiens, HL-60, 72 h
Description: Growth inhibition of human HL60 cells assessed as ATP level after 72 hrs by CellTiterGlo assay

MV4-11 = assay: cells; assay type: functional, cell-based; conditions: Homo sapiens, MV4-11, 72 h
Description: Growth inhibition of human MV4-11 cells assessed as ATP level after 72 hrs by CellTiterGlo assay

Histone deacetylase 1 [9] = target: T4, Histone deacetylase 1 (Homo sapiens, UniProt Q13547)
Description: Inhibition of HDAC1 (unknown origin)

Histone deacetylase 9 = Histone deacetylase 9 (Homo sapiens, UniProt Q9UKV0)
Description: Inhibition of HDAC9 (unknown origin)

[10] = target: T3, Bromodomain-containing protein 4; assay: Inhibition of His6-tagged BRD4 (1 to 477) (unknown origin) by surface plasmon resonance analysis
[11] = target: T3, Bromodomain-containing protein 4; assay: Inhibition of BRD4 bromodomain 2 (338 to 437) (unknown origin) by surface plasmon resonance analysis
[12] = target: T1, Bromodomain-containing protein 2; assay: Binding affinity to BRD2 in human HL60 cell nuclear extracts assessed as inhibition of protein binding to N-I-BET functionalised sepharose beads after 1 hr by coomassie staining-based chemoproteomic competition binding assay; parameters: species or system HL-60; conditions: read-out: Kd(app)
[13] = target: T2, Bromodomain-containing protein 3; assay: Binding affinity to BRD3 in human HL60 cell nuclear extracts assessed as inhibition of protein binding to N-I-BET functionalised sepharose beads after 1 hr by coomassie staining-based chemoproteomic competition binding assay; parameters: species or system HL-60; conditions: read-out: Kd(app)
Target sequence in this assay (Q15059 whole entry): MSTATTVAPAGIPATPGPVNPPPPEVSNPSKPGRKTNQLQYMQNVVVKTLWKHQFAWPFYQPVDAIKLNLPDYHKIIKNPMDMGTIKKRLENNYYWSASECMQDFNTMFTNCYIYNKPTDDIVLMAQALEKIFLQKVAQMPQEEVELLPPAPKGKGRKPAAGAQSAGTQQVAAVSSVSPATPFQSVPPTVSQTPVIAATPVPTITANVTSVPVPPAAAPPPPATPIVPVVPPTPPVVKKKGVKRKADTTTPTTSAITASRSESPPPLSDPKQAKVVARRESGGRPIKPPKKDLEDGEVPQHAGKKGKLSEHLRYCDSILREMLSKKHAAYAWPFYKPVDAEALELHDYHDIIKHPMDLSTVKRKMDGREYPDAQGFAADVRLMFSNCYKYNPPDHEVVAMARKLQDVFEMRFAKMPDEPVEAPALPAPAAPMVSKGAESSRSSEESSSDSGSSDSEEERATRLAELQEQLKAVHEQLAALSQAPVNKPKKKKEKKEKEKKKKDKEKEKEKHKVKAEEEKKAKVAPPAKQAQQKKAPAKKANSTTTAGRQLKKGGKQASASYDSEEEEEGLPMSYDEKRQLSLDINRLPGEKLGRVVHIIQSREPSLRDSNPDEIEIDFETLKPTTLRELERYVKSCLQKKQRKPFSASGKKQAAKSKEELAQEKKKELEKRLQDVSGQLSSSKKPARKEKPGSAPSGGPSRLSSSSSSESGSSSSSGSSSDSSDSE

[14] = target: T3, Bromodomain-containing protein 4; assay: Binding affinity to BRD4 in human HL60 cell nuclear extracts assessed as inhibition of protein binding to N-I-BET functionalised sepharose beads after 1 hr by coomassie staining-based staining-based chemoproteomic competition assay; parameters: species or system HL-60; conditions: read-out: Kd(app)
Homo sapiens = species on record: Homo sapiens; assay: Inhibition of BET in human 11060 cells assessed as downregulation of c-Myc expression level at IC90 after 6 to 24 hrs by Western blotting analysis; assay type: cell-based
[15] = target: T5, Protein deacetylase HDAC6 (Homo sapiens, UniProt Q9UBN7)
T5 sequence (Q9UBN7 whole entry): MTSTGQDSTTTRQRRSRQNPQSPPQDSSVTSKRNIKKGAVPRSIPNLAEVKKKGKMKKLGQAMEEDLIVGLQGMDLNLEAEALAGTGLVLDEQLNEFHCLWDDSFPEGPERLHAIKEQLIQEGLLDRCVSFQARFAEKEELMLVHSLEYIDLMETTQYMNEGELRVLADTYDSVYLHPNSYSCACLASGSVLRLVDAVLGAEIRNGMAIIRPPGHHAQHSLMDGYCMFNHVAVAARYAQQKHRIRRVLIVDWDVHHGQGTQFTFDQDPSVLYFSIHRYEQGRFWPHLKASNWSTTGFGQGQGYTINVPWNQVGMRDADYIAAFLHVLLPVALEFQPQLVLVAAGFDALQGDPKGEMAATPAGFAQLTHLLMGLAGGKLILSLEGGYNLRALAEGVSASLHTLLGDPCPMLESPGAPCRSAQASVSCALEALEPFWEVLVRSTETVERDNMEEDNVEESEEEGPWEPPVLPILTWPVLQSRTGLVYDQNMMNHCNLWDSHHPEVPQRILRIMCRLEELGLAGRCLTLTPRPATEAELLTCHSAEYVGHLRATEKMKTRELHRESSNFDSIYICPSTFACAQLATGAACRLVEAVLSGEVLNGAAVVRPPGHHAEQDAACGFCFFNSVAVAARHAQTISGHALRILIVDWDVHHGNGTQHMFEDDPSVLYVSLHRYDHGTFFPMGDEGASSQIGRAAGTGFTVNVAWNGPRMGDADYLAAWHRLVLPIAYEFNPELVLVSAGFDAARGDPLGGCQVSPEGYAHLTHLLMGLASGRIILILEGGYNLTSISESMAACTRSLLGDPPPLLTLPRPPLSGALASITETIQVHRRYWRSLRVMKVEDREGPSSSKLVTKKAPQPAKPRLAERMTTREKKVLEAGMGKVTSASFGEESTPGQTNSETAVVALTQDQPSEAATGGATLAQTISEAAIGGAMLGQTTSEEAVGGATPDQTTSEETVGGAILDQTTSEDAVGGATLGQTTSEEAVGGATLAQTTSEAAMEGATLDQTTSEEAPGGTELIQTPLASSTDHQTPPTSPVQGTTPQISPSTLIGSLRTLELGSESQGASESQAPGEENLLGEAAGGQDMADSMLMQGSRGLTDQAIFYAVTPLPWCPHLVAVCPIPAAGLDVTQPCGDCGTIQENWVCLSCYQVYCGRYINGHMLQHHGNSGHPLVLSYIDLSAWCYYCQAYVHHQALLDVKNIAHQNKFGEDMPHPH
Description: Inhibition of HDAC6 (unknown origin)

Histone deacetylase 1 [16] = target: T4, Histone deacetylase 1; remark: listed apart in the source
Description: Binding affinity to HDAC1 in human HL60 cell nuclear extracts assessed as inhibition of enzyme binding to N-SAHA functionalised sepharose beads after 1 hr by coomassie staining-based chemoproteomic competition binding assay

Histone deacetylase 2 = Histone deacetylase 2 (Homo sapiens, UniProt Q92769)
Description: Binding affinity to HDAC2 in human HL60 cell nuclear extracts assessed as inhibition of enzyme binding to N-SAHA functionalised sepharose beads after 1 hr by coomassie staining-based chemoproteomic competition binding assay

Histone deacetylase 3 = Histone deacetylase 3 (Homo sapiens, UniProt O15379)
Description: Binding affinity to HDAC3 in human HL60 cell nuclear extracts assessed as inhibition of enzyme binding to N-SAHA functionalised sepharose beads after 1 hr by coomassie staining-based chemoproteomic competition binding assay

[17] = target: T5, Protein deacetylase HDAC6; remark: listed apart in the source
Description: Binding affinity to HDAC6 in human HL60 cell nuclear extracts assessed as inhibition of enzyme binding to N-SAHA functionalised sepharose beads after 1 hr by coomassie staining-based chemoproteomic competition binding assay

Histone deacetylase 8 = target: T6, Histone deacetylase 8 (Homo sapiens, UniProt Q9BY41)
T6 sequence (Q9BY41 whole entry): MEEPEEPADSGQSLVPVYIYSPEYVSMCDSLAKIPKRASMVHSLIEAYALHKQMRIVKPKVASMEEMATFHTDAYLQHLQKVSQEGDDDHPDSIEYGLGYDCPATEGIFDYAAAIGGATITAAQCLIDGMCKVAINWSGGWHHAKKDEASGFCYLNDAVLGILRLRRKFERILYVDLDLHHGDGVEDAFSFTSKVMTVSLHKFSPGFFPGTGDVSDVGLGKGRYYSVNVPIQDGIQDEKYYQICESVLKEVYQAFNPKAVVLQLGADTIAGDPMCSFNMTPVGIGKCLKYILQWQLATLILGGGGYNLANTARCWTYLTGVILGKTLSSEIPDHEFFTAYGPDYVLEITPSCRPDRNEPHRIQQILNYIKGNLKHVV
Description: Binding affinity to HDAC8 in human HL60 cell nuclear extracts assessed as inhibition of enzyme binding to N-SAHA functionalised sepharose beads after 1 hr by coomassie staining-based chemoproteomic competition binding assay

[18] = target: T7, Polyamine deacetylase HDAC10 (Homo sapiens, UniProt Q969S8)
T7 sequence (Q969S8 whole entry): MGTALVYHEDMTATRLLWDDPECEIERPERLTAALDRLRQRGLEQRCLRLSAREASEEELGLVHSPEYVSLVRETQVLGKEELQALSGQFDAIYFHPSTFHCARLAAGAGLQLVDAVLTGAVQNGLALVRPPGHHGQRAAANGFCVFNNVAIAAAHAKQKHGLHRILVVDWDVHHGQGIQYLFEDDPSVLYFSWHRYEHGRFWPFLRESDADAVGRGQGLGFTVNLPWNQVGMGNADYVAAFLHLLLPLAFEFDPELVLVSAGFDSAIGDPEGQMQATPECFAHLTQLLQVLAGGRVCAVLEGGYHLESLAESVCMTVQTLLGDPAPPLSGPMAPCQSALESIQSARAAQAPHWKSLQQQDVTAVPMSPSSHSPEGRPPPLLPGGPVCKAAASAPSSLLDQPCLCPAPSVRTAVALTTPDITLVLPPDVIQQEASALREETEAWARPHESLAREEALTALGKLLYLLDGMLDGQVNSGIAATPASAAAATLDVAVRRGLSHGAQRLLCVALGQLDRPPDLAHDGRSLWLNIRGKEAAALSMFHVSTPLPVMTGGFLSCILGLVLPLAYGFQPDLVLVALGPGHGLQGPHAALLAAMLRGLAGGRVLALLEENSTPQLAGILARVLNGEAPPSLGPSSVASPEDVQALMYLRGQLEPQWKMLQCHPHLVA
Description: Binding affinity to HDAC10 in human HL60 cell nuclear extracts assessed as inhibition of enzyme binding to N-SAHA functionalised sepharose beads after 1 hr by coomassie staining-based chemoproteomic competition binding assay

Chain of Histone deacetylase 9 (Q9UKV0 whole entry): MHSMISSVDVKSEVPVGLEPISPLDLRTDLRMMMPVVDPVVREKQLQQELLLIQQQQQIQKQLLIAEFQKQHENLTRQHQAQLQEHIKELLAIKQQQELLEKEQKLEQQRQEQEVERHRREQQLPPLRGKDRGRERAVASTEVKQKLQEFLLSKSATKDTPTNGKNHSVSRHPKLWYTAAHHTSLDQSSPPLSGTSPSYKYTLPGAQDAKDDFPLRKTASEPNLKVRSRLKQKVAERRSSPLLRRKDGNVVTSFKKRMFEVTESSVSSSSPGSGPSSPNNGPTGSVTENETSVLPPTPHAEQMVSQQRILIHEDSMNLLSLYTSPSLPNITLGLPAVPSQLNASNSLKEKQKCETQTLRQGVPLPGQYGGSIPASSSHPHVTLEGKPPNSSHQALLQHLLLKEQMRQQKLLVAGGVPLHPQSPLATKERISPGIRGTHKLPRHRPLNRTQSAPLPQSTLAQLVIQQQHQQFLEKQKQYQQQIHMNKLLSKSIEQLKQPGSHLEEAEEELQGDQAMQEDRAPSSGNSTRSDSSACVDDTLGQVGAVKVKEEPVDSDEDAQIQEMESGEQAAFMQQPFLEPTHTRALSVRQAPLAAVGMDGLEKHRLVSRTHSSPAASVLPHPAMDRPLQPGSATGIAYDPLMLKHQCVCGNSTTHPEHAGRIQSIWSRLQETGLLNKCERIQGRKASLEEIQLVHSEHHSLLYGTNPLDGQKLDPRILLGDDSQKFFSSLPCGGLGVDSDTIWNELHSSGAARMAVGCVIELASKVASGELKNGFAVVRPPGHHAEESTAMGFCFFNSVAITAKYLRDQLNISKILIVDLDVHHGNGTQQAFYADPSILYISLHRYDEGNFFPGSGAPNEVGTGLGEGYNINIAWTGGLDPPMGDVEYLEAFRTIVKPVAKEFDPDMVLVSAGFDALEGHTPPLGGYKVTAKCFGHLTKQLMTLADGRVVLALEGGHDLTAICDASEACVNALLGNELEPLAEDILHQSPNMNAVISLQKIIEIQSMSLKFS
T4 sequence (Q13547 whole entry): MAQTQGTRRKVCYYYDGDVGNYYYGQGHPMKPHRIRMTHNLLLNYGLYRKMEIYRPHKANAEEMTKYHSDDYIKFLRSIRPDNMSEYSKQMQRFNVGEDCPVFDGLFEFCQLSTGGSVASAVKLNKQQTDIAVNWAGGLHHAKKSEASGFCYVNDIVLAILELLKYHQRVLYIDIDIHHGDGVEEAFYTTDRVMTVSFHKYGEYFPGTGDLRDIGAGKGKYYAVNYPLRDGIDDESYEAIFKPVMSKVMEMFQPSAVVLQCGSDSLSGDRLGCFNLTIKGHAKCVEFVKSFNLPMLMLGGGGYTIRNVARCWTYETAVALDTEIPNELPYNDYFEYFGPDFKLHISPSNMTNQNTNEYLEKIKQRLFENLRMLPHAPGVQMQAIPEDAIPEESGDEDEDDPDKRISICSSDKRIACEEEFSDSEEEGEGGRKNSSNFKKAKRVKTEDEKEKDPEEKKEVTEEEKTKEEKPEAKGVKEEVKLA
Chain of Histone deacetylase 3 (O15379 whole entry): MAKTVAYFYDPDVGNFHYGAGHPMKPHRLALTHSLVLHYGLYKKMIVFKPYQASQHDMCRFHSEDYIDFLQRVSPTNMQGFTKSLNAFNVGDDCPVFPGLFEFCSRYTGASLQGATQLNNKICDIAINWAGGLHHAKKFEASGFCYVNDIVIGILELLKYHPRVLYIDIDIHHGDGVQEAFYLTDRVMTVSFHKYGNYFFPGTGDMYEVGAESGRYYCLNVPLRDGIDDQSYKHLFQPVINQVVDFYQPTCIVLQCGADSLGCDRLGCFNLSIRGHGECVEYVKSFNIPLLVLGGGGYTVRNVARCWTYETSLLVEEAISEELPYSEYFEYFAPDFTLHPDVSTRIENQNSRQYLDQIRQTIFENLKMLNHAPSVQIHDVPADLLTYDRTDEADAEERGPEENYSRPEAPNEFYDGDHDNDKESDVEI
Chain of Histone deacetylase 2 (Q92769 whole entry): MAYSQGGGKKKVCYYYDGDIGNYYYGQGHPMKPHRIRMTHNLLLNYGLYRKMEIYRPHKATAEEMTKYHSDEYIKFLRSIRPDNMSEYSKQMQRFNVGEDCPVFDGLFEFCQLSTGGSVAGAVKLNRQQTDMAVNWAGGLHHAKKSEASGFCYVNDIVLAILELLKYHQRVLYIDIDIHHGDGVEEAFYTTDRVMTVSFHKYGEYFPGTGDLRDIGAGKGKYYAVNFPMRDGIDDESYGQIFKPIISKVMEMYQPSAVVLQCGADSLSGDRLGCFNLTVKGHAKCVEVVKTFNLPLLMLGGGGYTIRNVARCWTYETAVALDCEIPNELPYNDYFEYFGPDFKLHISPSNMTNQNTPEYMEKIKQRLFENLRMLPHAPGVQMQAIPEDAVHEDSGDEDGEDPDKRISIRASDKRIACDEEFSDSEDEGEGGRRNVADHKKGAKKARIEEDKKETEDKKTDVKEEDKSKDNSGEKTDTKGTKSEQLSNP

SMILES | inhibition [1] | inhibition [2] | inhibition [3] | solubility ([4]; read-out: solubility) [µM] | Papp [5] [×10⁻⁶ cm/s] | IC50 [6] [nM] | IC50 (Histone deacetylase 1 [9]) [nM] | IC50 (Histone deacetylase 9) [nM] | IC50 [15] [nM] | further results
CC(=O)N1c2ccc(NC(=O)CCCCCCC(=O)O)cc2[C@H](NC(=O)OC(C)C)C[C@@H]1C | Active | Active | Active | – | – | – | – | – | – | –
CNCc1ccc(-c2ccc3c(c2)[C@H](NC(=O)OC(C)C)C[C@H](C)N3C(C)=O)cc1 | Active | Active | Active | 357 (≈ 146 µg/mL) | 17.4 | 280 | > 100000 | > 100000 | – | IC50 (PBMC [7]): 5 nM; IC50 (PBMC [8]): 1 nM; IC50 (cells): 306 nM; IC50 (HL-60): 381 nM; IC50 (MV4-11): 191 nM
CC(=O)N1c2ccc(NC(=O)CCCCCCC(=O)NO)cc2[C@H](NC(=O)OC(C)C)C[C@@H]1C | – | – | – | > 182 | < 0.3 | 290 | 250 | 61700 | 1740 | –
O=C(CCCCCCC(=O)Nc1ccccc1)NO [VORINOSTAT] | – | – | – | – | 1.5 | > 50000 | – | – | – | solubility [4]: 307 µM (≈ 81.1 µg/mL)

Now from value to molecule, other results behind:

inhibition [1] | inhibition [2] | inhibition [3] | solubility ([4]; read-out: solubility) [µM] | Papp [5] [×10⁻⁶ cm/s] | IC50 [6] [nM] | IC50 (Histone deacetylase 1 [9]) [nM] | IC50 (Histone deacetylase 9) [nM] | IC50 [15] [nM] | SMILES | further results
Active | Active | Active | 154 (≈ 85.1 µg/mL) | < 0.3 | 50 | 250 | 34900 | 420 | CC(=O)N1c2ccc(-c3ccc(NC(=O)CCCCCCC(=O)NO)cc3)cc2[C@H](NC(=O)OC(C)C)C[C@@H]1C | Kd [10]: 57 nM; Kd [11]: 53 nM; Kd [12]: 32 nM; Kd [13]: 70 nM; Kd [14]: 112 nM; IC50 (PBMC [7]): 219 nM; IC50 (PBMC [8]): 50 nM; IC50 (cells): 832 nM; IC50 (HL-60): 764 nM; IC50 (MV4-11): 334 nM; inhibition (Homo sapiens): Active; Kd (Histone deacetylase 1 [16]): 331 nM; Kd (Histone deacetylase 2): 955 nM; Kd (Histone deacetylase 3): 424 nM; Kd [17]: 236 nM; Kd (Histone deacetylase 8): 328 nM; Kd [18]: 207 nM
– | – | – | 31 (≈ 14.5 µg/mL) | 3.1 | 100 | 900 | 37700 | 980 | CC(=O)N1c2ccc(NC(=O)CCCCCCC(=O)NO)cc2[C@H](Nc2ccccc2)C[C@@H]1C | –
Active | Active | Active | > 442 | 0.8 | 360 | 50 | 930 | 1290 | CC(=O)N1c2ccc(-c3ccccc3)cc2[C@H](NC(=O)CCCCCCC(=O)NO)C[C@@H]1C | –
